# Experimental data taken from patent US11957783B2, “Topical immunosensitizers to treat viral and fungal infections” (Squarex, LLC, priority 2018, dated 2024).
# Tested on: peripheral blood mononuclear cells (PBMC)
# Assay: Cytokine and immune-function gene expression of PBMC in vitro (qRT-PCR, 41 immune-related genes)
# Assay type: cell-based, human
# Experimental: After a screening visit at which blood was drawn to test for IgG antibody against HSV-1 and subjects were interviewed for inclusion/exclusion criteria, selected subjects returned for blood draws on day 1. After the blood draw on day 1, subjects in group A only were dosed with SADBE. A petrolatum donut was applied with a cotton swab to form about a 1 cm diameter donut on skin on the inner aspect of the upper arm. Then a separate cotton swab was dipped in a 2% SADBE solution (w/v) in DMSO, and the swab was then used to apply about 10-20 mg of solution over about a 1 cm diameter circle within the petrolatum donut. Immediately after application, the application site was covered with TEGADERM. Subjects were advised to remove the TEGADERM and rinse and wipe the spot three hours later. The group A subjects then returned for blood draws on days 15 and 57 and were queried about adverse events on those dates.
# PBMC were isolated using SepMate PBMC isolation tubes (Stem Cell Technologies, Vancouver, Canada) and Ficoll-Paque according to the manufacturer's instructions. PBMC were isolated and suspended in negative control medium at 2 million cells/ml. PBMC suspension (100 μL) was added to 100 μL of medium in quadruplicate in 96-well plates. The plates were prepared in advance and stored at −70° C. The wells were in five different conditions in quadruplicate with these final concentrations after addition of the 100 μL of PBMC suspension in negative control medium. • 1. Negative control in medium (RPMI with glutamine and pen/strep, supplemented with 10% human A/B serum). • 2. Medium plus 16 μg/ml protein from heat-inactivated HSV-1-infected Vero cell extracts. • 3. Medium plus heat-inactivated HSV-1 cell-free virus at a final 7.5 million pfu/ml. • 4. Medium plus Candida cell extract. (Greer item number M15A50, 20,000 pnu/ml allergenic extract mixed molds Candida albicans, was diluted 1/50 into medium). • 5. Positive control, medium plus 10 μg/ml concanavalin A.
# Two plates were created for each subject at each collection point. One plate was incubated for 2 days at 37° C. in a humidified 5% CO2 atmosphere and then RNA was isolated from the pooled contents of the 4 wells of a given condition for a specific patient, and the RNA was stored at −70° C. and subsequently used for quantitative real time PCR analysis of gene expression of 41 immune-related genes.
# As noted above, after 2 days of growth of the PBMC in a 37° C. humidified 5% CO2 incubator in a 96-well plate, four wells of a single condition (negative control, positive control, heat-inactivated HSV-1, HSV-1-infected cell extracts, or Candida extract) with cells from a single subject (200 μL in each well) were pooled, and the RNA was immediately isolated with Trizol reagent and chloroform by Qiagen RNeasy MiniElute clean up kit Qiagen cat #74204, according to manufacturer's instructions into a final volume of 13 μL, and then flash frozen on powdered dry ice, and stored at −70° C. in aliquots of 3 μL for RNA quantification and 10 μL for PCR analysis.
# RNA was preamplified with the Qiagen RT2 PreAMP cDNA synthesis kit (Ref. 330451) and custom RT2 PreAmp primer mix (Ref. 330141) starting with about 50 ng RNA according to the procedure of RT preamp cDNA synthesis handbook date March 2011, pages 17-20. The amplification reactions (final 120 μL) were frozen at −70° C. and used for qPCR analysis the next day.
# qPCR was done with the Qiagen RT PCR profiler gene analysis kit (catalog number 330451) using RT2 Sybr Green Rox qPCR Mastermix (24) (Part 330523) and Custom RT2 PCR array plates (Ref. 330171). For this 675 μL 2×RT2 SYBR green mastermix, 51 μL pre-AMP synthesis reaction, and 623 μL RNase free water were mixed, and then 25 μL of the mixture was added to 48 wells on the left or right half of the custom PCR plate. The PCR instrument was Applied Biosystems 7900HT fast real time PCR. […]
# [1] = Group A, HSV-infected cell extracts
smiles,measurement,setting,value
"CCCCOc1c(OCCCC)c(=O)c1=O [SADBE, 3,4-Dibutoxy-3-cyclobutene-1,2-dione]",Ratio of absolute IFNG gene expression in group A vs. Groups B + C pooled,"Candida, group A day 57 after SADBE",2.684
same,CCL2 ratio of PBMC absolute gene expression day 15/day 1,"Group A, Candida",0.73
same,CCL2 ratio of PBMC absolute gene expression day 57/day 1,"Group A, Candida",1.16
same,CCL3 ratio of PBMC absolute gene expression day 15/day 1,"Group A, Candida",0.33
same,CCL3 ratio of PBMC absolute gene expression day 57/day 1,"Group A, Candida",1.79
same,CCL7 ratio of PBMC absolute gene expression day 15/day 1,"Group A, Candida",0.66
same,CCL7 ratio of PBMC absolute gene expression day 57/day 1,"Group A, Candida",2.03
same,CCR5 ratio of PBMC absolute gene expression day 15/day 1,"Group A, Candida",1.16
same,CCR5 ratio of PBMC absolute gene expression day 57/day 1,"Group A, Candida",1.42
same,CD80 ratio of PBMC absolute gene expression day 15/day 1,"Group A, Candida",0.75
same,CD80 ratio of PBMC absolute gene expression day 57/day 1,"Group A, Candida",1.57
same,CXCL2 ratio of PBMC absolute gene expression day 15/day 1,"Group A, Candida",0.39
same,CXCL2 ratio of PBMC absolute gene expression day 57/day 1,"Group A, Candida",1.10
same,CXCL5 ratio of PBMC absolute gene expression day 15/day 1,"Group A, Candida",0.46
same,CXCL5 ratio of PBMC absolute gene expression day 57/day 1,"Group A, Candida",1.45
same,CXCL9 ratio of PBMC absolute gene expression day 15/day 1,"Group A, Candida",2.52
same,CXCL9 ratio of PBMC absolute gene expression day 57/day 1,"Group A, Candida",14.21
same,CXCL10 ratio of PBMC absolute gene expression day 15/day 1,"Group A, Candida",2.87
same,CXCL10 ratio of PBMC absolute gene expression day 57/day 1,"Group A, Candida",12.8
same,CXCL11 ratio of PBMC absolute gene expression day 15/day 1,"Group A, Candida",1.06
same,CXCL11 ratio of PBMC absolute gene expression day 57/day 1,"Group A, Candida",2.53
same,DDX58 ratio of PBMC absolute gene expression day 15/day 1,"Group A, Candida",1.08
same,DDX58 ratio of PBMC absolute gene expression day 57/day 1,"Group A, Candida",1.29
same,FOXP3 ratio of PBMC absolute gene expression day 15/day 1,"Group A, Candida",1.16
same,FOXP3 ratio of PBMC absolute gene expression day 57/day 1,"Group A, Candida",2.01
same,GATA3 ratio of PBMC absolute gene expression day 15/day 1,"Group A, Candida",1.12
same,GATA3 ratio of PBMC absolute gene expression day 57/day 1,"Group A, Candida",0.28
same,ICAM1 ratio of PBMC absolute gene expression day 15/day 1,"Group A, Candida",1.03
same,ICAM1 ratio of PBMC absolute gene expression day 57/day 1,"Group A, Candida",1.27
same,IFNA1 ratio of PBMC absolute gene expression day 15/day 1,"Group A, Candida",1.42
same,IFNA1 ratio of PBMC absolute gene expression day 57/day 1,"Group A, Candida",2.13
same,IFNB1 ratio of PBMC absolute gene expression day 15/day 1,"Group A, Candida",1.03
same,IFNB1 ratio of PBMC absolute gene expression day 57/day 1,"Group A, Candida",0.93
same,IFNG ratio of PBMC absolute gene expression day 15/day 1,"Group A, Candida",0.81
same,IFNG ratio of PBMC absolute gene expression day 57/day 1,"Group A, Candida",8.54
same,IL1B ratio of PBMC absolute gene expression day 15/day 1,"Group A, Candida",0.17
same,IL1B ratio of PBMC absolute gene expression day 57/day 1,"Group A, Candida",1.73
same,IL1R1 ratio of PBMC absolute gene expression day 15/day 1,"Group A, Candida",0.69
same,IL1R1 ratio of PBMC absolute gene expression day 57/day 1,"Group A, Candida",0.9
same,IL1RN ratio of PBMC absolute gene expression day 15/day 1,"Group A, Candida",1
same,IL1RN ratio of PBMC absolute gene expression day 57/day 1,"Group A, Candida",1.91
same,IL2 ratio of PBMC absolute gene expression day 15/day 1,"Group A, Candida",0.75
same,IL2 ratio of PBMC absolute gene expression day 57/day 1,"Group A, Candida",6.31
same,IL4 ratio of PBMC absolute gene expression day 15/day 1,"Group A, Candida",1.12
same,IL4 ratio of PBMC absolute gene expression day 57/day 1,"Group A, Candida",1.52
same,IL5 ratio of PBMC absolute gene expression day 15/day 1,"Group A, Candida",1.23
same,IL5 ratio of PBMC absolute gene expression day 57/day 1,"Group A, Candida",1.10
same,IL8 ratio of PBMC absolute gene expression day 15/day 1,"Group A, Candida",0.44
same,IL8 ratio of PBMC absolute gene expression day 57/day 1,"Group A, Candida",1.89
same,IL10 ratio of PBMC absolute gene expression day 15/day 1,"Group A, Candida",0.6
same,IL10 ratio of PBMC absolute gene expression day 57/day 1,"Group A, Candida",1.12
same,IL12A ratio of PBMC absolute gene expression day 15/day 1,"Group A, Candida",1.02
same,IL12A ratio of PBMC absolute gene expression day 57/day 1,"Group A, Candida",1.64
same,IL12B ratio of PBMC absolute gene expression day 15/day 1,"Group A, Candida",0.78
same,IL12B ratio of PBMC absolute gene expression day 57/day 1,"Group A, Candida",3.61
same,IL13 ratio of PBMC absolute gene expression day 15/day 1,"Group A, Candida",0.6
same,IL13 ratio of PBMC absolute gene expression day 57/day 1,"Group A, Candida",4.28
same,IL15 ratio of PBMC absolute gene expression day 15/day 1,"Group A, Candida",1.09
same,IL15 ratio of PBMC absolute gene expression day 57/day 1,"Group A, Candida",2.18
same,IL16 ratio of PBMC absolute gene expression day 15/day 1,"Group A, Candida",1.02
same,IL16 ratio of PBMC absolute gene expression day 57/day 1,"Group A, Candida",0.81
same,JAK2 ratio of PBMC absolute gene expression day 15/day 1,"Group A, Candida",1.1
same,JAK2 ratio of PBMC absolute gene expression day 57/day 1,"Group A, Candida",1.68
same,LTA ratio of PBMC absolute gene expression day 15/day 1,"Group A, Candida",1.15
same,LTA ratio of PBMC absolute gene expression day 57/day 1,"Group A, Candida",1.94
same,LYZ ratio of PBMC absolute gene expression day 15/day 1,"Group A, Candida",2.22
same,LYZ ratio of PBMC absolute gene expression day 57/day 1,"Group A, Candida",0.93
same,MX1 ratio of PBMC absolute gene expression day 15/day 1,"Group A, Candida",1.28
same,MX1 ratio of PBMC absolute gene expression day 57/day 1,"Group A, Candida",1.34
same,NOD1 ratio of PBMC absolute gene expression day 15/day 1,"Group A, Candida",1.19
same,NOD1 ratio of PBMC absolute gene expression day 57/day 1,"Group A, Candida",1.18
same,SPP1 ratio of PBMC absolute gene expression day 15/day 1,"Group A, Candida",2.32
same,SPP1 ratio of PBMC absolute gene expression day 57/day 1,"Group A, Candida",7.34
same,STAT1 ratio of PBMC absolute gene expression day 15/day 1,"Group A, Candida",1.12
same,STAT1 ratio of PBMC absolute gene expression day 57/day 1,"Group A, Candida",3.36
same,STAT4 ratio of PBMC absolute gene expression day 15/day 1,"Group A, Candida",1.07
same,STAT4 ratio of PBMC absolute gene expression day 57/day 1,"Group A, Candida",1.76
same,TNF ratio of PBMC absolute gene expression day 15/day 1,"Group A, Candida",0.85
same,TNF ratio of PBMC absolute gene expression day 57/day 1,"Group A, Candida",1.22
same,TNFSF10 ratio of PBMC absolute gene expression day 15/day 1,"Group A, Candida",1.02
same,TNFSF10 ratio of PBMC absolute gene expression day 57/day 1,"Group A, Candida",1.52
same,TNFSF13B ratio of PBMC absolute gene expression day 15/day 1,"Group A, Candida",1.14
same,TNFSF13B ratio of PBMC absolute gene expression day 57/day 1,"Group A, Candida",1.62
same,CCL2 ratio of PBMC absolute gene expression day 15/day 1,[1],0.88
same,CCL2 ratio of PBMC absolute gene expression day 57/day 1,[1],1.21
same,CCL3 ratio of PBMC absolute gene expression day 15/day 1,[1],1.31
same,CCL3 ratio of PBMC absolute gene expression day 57/day 1,[1],4.60
same,CCL7 ratio of PBMC absolute gene expression day 15/day 1,[1],0.92
same,CCL7 ratio of PBMC absolute gene expression day 57/day 1,[1],0.75
same,CCR5 ratio of PBMC absolute gene expression day 15/day 1,[1],1.00
same,CCR5 ratio of PBMC absolute gene expression day 57/day 1,[1],0.93
same,CD80 ratio of PBMC absolute gene expression day 15/day 1,[1],0.90
same,CD80 ratio of PBMC absolute gene expression day 57/day 1,[1],0.93
same,CXCL2 ratio of PBMC absolute gene expression day 15/day 1,[1],1.02
same,CXCL2 ratio of PBMC absolute gene expression day 57/day 1,[1],2.79
same,CXCL5 ratio of PBMC absolute gene expression day 15/day 1,[1],1.24
same,CXCL5 ratio of PBMC absolute gene expression day 57/day 1,[1],6.03
same,CXCL9 ratio of PBMC absolute gene expression day 15/day 1,[1],1.12
same,CXCL9 ratio of PBMC absolute gene expression day 57/day 1,[1],0.91
same,CXCL10 ratio of PBMC absolute gene expression day 15/day 1,[1],0.82
same,CXCL10 ratio of PBMC absolute gene expression day 57/day 1,[1],0.49
same,CXCL11 ratio of PBMC absolute gene expression day 15/day 1,[1],0.53
same,CXCL11 ratio of PBMC absolute gene expression day 57/day 1,[1],0.31
same,DDX58 ratio of PBMC absolute gene expression day 15/day 1,[1],0.72
same,DDX58 ratio of PBMC absolute gene expression day 57/day 1,[1],0.94
same,FOXP3 ratio of PBMC absolute gene expression day 15/day 1,[1],1.15
same,FOXP3 ratio of PBMC absolute gene expression day 57/day 1,[1],1.11
same,GATA3 ratio of PBMC absolute gene expression day 15/day 1,[1],2.84
same,GATA3 ratio of PBMC absolute gene expression day 57/day 1,[1],2.6
same,ICAM1 ratio of PBMC absolute gene expression day 15/day 1,[1],1.05
same,ICAM1 ratio of PBMC absolute gene expression day 57/day 1,[1],0.77
same,IFNA1 ratio of PBMC absolute gene expression day 15/day 1,[1],0.80
same,IFNA1 ratio of PBMC absolute gene expression day 57/day 1,[1],1.29
same,IFNB1 ratio of PBMC absolute gene expression day 15/day 1,[1],0.65
